Data from patent US5449684A (priority 1993, dated 1995).
Converted amounts (≈) assume the structure as drawn.

Legend:
Format in all cases: cell-based
[1] = system: human lung carcinoma A-549; assay: in vitro antitumour activity in cell cultures of human lung carcinoma A-549; conditions: A549, A-549 cell culture
Method: (§1) The antitumour activities of Mycaperoxide A and Mycaperoxide B have been determined "in vitro" in cell cultures of mouse leukemia P-388, human lung carcinoma A-549 and human colon carcinoma HT-29. The procedure was carried out using the method described by Raymond J. Bergeron et al. Biochem Bioph. Res. Comm. 1984, 121(3), 848-854 and by Alan C Shroeder et al. J. Med. Chem. 1981, 24 1078-1083.

mouse leukemia P-388 = assay: in vitro antitumour activity in cell cultures of mouse leukemia P-388; conditions: P388, P-388 cell culture
Method: as §1

[2] = system: human colon carcinoma HT-29; assay: in vitro antitumour activity in cell cultures of human colon carcinoma HT-29; conditions: HT-29 cell culture
Method: as §1

[3] = system: VSV (Vesicular stomatitis virus); assay: microbe, parasite or virus in culture; conditions: read-out: IC50 VSV

## CC(C(=O)O)C1CCC(C)(CCC2(C)C(C)CCC3C(C)(C)CCCC32O)OO1 (centres unmarked) [Mycaperoxide A, mycaperoxide A]
[1]
  IC50: 0.5 µg/mL (≈ 1.22 µM)
Mouse leukemia P-388
  IC50: 0.5 µg/mL (≈ 1.22 µM)
[2]
  IC50: 0.5 µg/mL (≈ 1.22 µM)
[3]
  IC50: 2 µg/mL (≈ 4.87 µM)

## CC(C(=O)O)C1CCC(C)(CCC2(O)C(C)CCC3C(C)(C)CCCC32C)OO1 (centres unmarked) [Mycaperoxide B, mycaperoxide B]
[1]
  IC50: 1 µg/mL (≈ 2.44 µM)
Mouse leukemia P-388
  IC50: 1 µg/mL (≈ 2.44 µM)
[2]
  IC50: 1 µg/mL (≈ 2.44 µM)
[3]
  IC50: 4 µg/mL (≈ 9.74 µM)
